Bounds are passed on as bounds.

The subject of series [1] is rat. The following applies: Chronic toxicity, sprague dawley, Oral, Feed, dose end: 98 week, group: cholinesterase.
Series [2] relates to dog. To be noted: Chronic toxicity, beagle, Oral, Feed, dose end: 52 week.
The subject of series [3] is rat. To be noted: Subchronic oral toxicity in rodents, sprague dawley, Feed, dose end: 90 day.
Series [4] deals with rat. To be noted: Prenatal developmental toxicity study, sprague dawley, Oral, Gavage/Intubation, dose end: 15 GD.
The subject of series [5] is rat. The following applies: Developmental neurotoxicity range-finding study, sprague dawley, Oral, Feed, dose end: 21 PND, group: cannot be grouped.
The test system of series [6] is mouse. The following applies: Carcinogenicity; cd1; Oral; Feed; dose end: 113 week; group: systemic; systemic / pathology microscopic / intestine small / adenocarcinoma + systemic / pathology microscopic / intestine small / adenoma + ….
The subject of series [7] is dog. To be noted: Chronic toxicity; beagle; Oral; Capsule; dose end: 12 month; group: systemic; systemic / in life observation / clinical signs / emesis + systemic / in life observation / clinical signs / mucoid stools + systemic / in ….
Series [8] has as its system rabbit. To be noted: Prenatal developmental toxicity study, new zealand white, Oral, Gavage/Intubation, dose end: 19 GD.
The subject of series [9] is mouse. To be noted: Carcinogenicity, cd1, Oral, Feed, dose end: 22 month, group: systemic.
Series [10] concerns rat. To be noted: Subchronic oral toxicity in rodents, sprague dawley, Gavage/Intubation, dose end: 13 week, group: systemic.
In series [11] the test system is rat. To be noted: Prenatal developmental toxicity study, sprague dawley, Oral, Gavage/Intubation, dose end: 15 GD, group: maternal.
The subject of series [12] is rat. To be noted: Acute oral toxicity, wistar, [Not Specified], dose end: 7 day, group: systemic, systemic / clinical chemistry / calcium / calcium + systemic / urinalysis / calcium / calcium.
The subject of series [13] is rat. To be noted: Combined chronic toxicity/carcinogenicity; other; Oral; Feed; dose end: 2 year; group: systemic; systemic / clinical chemistry / peroxisomal beta-oxidation analysis / peroxisomal beta-oxidation analysis + systemic / organ weight / liver….
Series [14] deals with rabbit. To be noted: Prenatal developmental toxicity study, new zealand white, Oral, Gavage/Intubation, dose end: 18 GD.
For series [15], the system named is rat. The following applies: Combined chronic toxicity/carcinogenicity; sprague dawley; Oral; Feed; dose end: 104 week; group: systemic; systemic / clinical chemistry / alkaline phosphatase (alp/alk) / alkaline phosphatase (alp/alk) + systemic / clinical chemistry / aspartate ….
Series [16] deals with rat. The following applies: Multigenerational reproductive toxicity study, sprague dawley, Oral, Gavage/Intubation, dose end: 2 generation.
The test system of series [17] is rat. The following applies: Subchronic oral toxicity in rodents, Charles River CD, Feed, dose end: 90 day, group: systemic.
The mark [18] stands for this setting: cholinesterase / cholinesterase / cholinesterase / plasma cholinesterase (che).
Where [19] appears, read: cholinesterase / cholinesterase / cholinesterase / plasma cholinesterase (che) + cholinesterase / cholinesterase / cholinesterase / brain ….
The mark [20] stands for this setting: group: cholinesterase, cholinesterase / cholinesterase / cholinesterase / cholinesterase (che) + cholinesterase / cholinesterase / cholinesterase / plasma ….
Where [21] appears, read: group: systemic, systemic / organ weight / lung / relative to brain weight.
Where [22] appears, read: group: cholinesterase, cholinesterase / cholinesterase / cholinesterase / plasma cholinesterase (che).
Setting [23] is: group: cholinesterase, cholinesterase / cholinesterase / cholinesterase / plasma cholinesterase (che) + cholinesterase / cholinesterase / cholinesterase / brain ….
Setting [24] is: group: systemic, systemic / in life observation / body weight / body weight gain + systemic / in life observation / clinical signs / aggressive behavior + ….
The mark [25] stands for this setting: group: developmental, developmental / developmental malformation / bone / short + systemic / in life observation / body weight / fetal weight.
Setting [26] is: group: maternal, systemic / in life observation / body weight / body weight gain.
[27] abbreviates: group: maternal, systemic / in life observation / body weight / body weight gain + reproductive / reproductive performance / postimplantation loss / ….
Setting [28] is: group: developmental, developmental / developmental malformation / bone / delayed ossification + developmental / developmental malformation / bone / full ….
Where [29] appears, read: group: maternal, systemic / in life observation / body weight / body weight gain + systemic / in life observation / clinical signs / anorexia + systemic / in….
Where [30] appears, read: systemic / in life observation / body weight / body weight + systemic / in life observation / food consumption / food consumption.
[31] abbreviates: systemic / pathology microscopic / intestine small / neoplasm nos + systemic / pathology microscopic / stomach / neoplasm nos + systemic / ….
Setting [32] is: systemic / organ weight / liver / absolute + systemic / organ weight / liver / relative to body weight + systemic / in life observation / ….
Where [33] appears, read: systemic / in life observation / body weight / body weight + systemic / in life observation / clinical signs / alopecia + systemic / in life….
Where [34] appears, read: group: developmental, developmental / developmental malformation / bone / full supernumerary.
The mark [35] stands for this setting: group: offspring, developmental / offspring survival late / lactation index / lactation index + developmental / offspring survival late / [other] / [other] + ….
Where [36] appears, read: group: parental, systemic / in life observation / body weight / body weight + systemic / in life observation / body weight / body weight gain + systemic / in….
[37] abbreviates: group: parental, systemic / organ weight / kidney / relative to body weight + systemic / organ weight / liver / absolute + systemic / organ weight / liver / ….
The mark [38] stands for this setting: systemic / organ weight / liver / absolute + systemic / organ weight / liver / relative to body weight + systemic / pathology microscopic / ….

The term LOAEL denotes the lowest dose or exposure tested at which an adverse effect was seen. As usually defined, the NOAEL is the highest tested level that showed no adverse finding. Consider `CCOP(=S)(OCC)Oc1cc(C)nc(C(C)C)n1` [Diazinon], for which the LEL in the series on rat [1] (setting [18]) came out at 0.06 mg/kg/day; with dog [2] (group: cholinesterase, cholinesterase / cholinesterase / cholinesterase / cholinesterase (che)) it was 0.015 mg/kg/day; in the series on dog [2] (setting [21]) it was 0.0037 mg/kg/day; in the series on rat [3] (setting [22]), 0.3 mg/kg/day; with rat [3] (setting [24]), 168 mg/kg/day; with rat [4] (setting [25]), 100 mg/kg/day. Also, the LEL in the series with rat [4] (setting [27]) turned out to be 100 mg/kg/day; with rat [5] (setting [19]) it was 0.063 mg/kg/day. Also, the LOAEL with rat [1] (setting [18]) is 0.06 mg/kg/day; in the series on dog [2] (setting [20]), 0.02 mg/kg/day; in the series on dog [2] (group: systemic, systemic / clinical chemistry / [other] / [other] + systemic / in life observation / food consumption / food consumption), 4.5 mg/kg/day; in the series with rat [3] (setting [22]), 0.3 mg/kg/day; in the series on rat [3] (setting [24]) it was more than 168 mg/kg/day; with rat [4] (group: developmental, developmental / developmental malformation / bone / short), 100 mg/kg/day. The LOAEL in the series with rat [4] (setting [26]) was 100 mg/kg/day; with rat [5] (setting [18]), 0.063 mg/kg/day. Also, the NEL in the series on rat [1] (setting [19]) is 0.004 mg/kg/day; with dog [2] (group: cholinesterase, cholinesterase / cholinesterase / cholinesterase / cholinesterase (che) + cholinesterase / cholinesterase / cholinesterase / brain …), 0.0032 mg/kg/day; with dog [2] (setting [21]) it was less than 0.0037 mg/kg/day; in the series with rat [3] (setting [23]), 0.03 mg/kg/day; with rat [3] (setting [24]) it was 15 mg/kg/day; in the series with rat [4] (setting [25]), 20 mg/kg/day. The NEL with rat [4] (setting [27]) is 20 mg/kg/day; in the series on rat [5] (setting [19]), 0.0125 mg/kg/day. In addition, the no-observed-adverse-effect level (NOAEL) in the series on rat [1] (setting [19]) is 0.004 mg/kg/day; with dog [2] (setting [20]), 0.0037 mg/kg/day; with dog [2] (group: systemic, systemic / clinical chemistry / [other] / [other] + systemic / in life observation / food consumption / food consumption + systemic / in …), 0.02 mg/kg/day; with rat [3] (setting [23]), 0.03 mg/kg/day; in the series with rat [3] (setting [24]) it was not below 168 mg/kg/day; in the series with rat [4] (setting [25]), 20 mg/kg/day. Also, the NOAEL in the series with rat [4] (setting [27]) worked out at 20 mg/kg/day; in the series on rat [5] (setting [19]), 0.0125 mg/kg/day.
Consider `O=C1C2CC=CCC2C(=O)N1SC(Cl)(Cl)Cl` (configuration not stated) [Captan], for which the LEL in the series on mouse [6] is 599 mg/kg/day; in the series with dog [7], 300 mg/kg/day; with rabbit [8] (setting [28]), 30 mg/kg/day; with rabbit [8] (setting [29]) it was 30 mg/kg/day; in the series on mouse [9] (systemic / pathology microscopic / intestine small / neoplasm nos + systemic / pathology microscopic / stomach / neoplasm nos) it was 60.9 mg/kg/day. Also, the LOAEL is more than 1880 mg/kg/day with mouse [6]; 300 mg/kg/day in the series on dog [7]; 30 mg/kg/day in the series on rabbit [8] (setting [28]); 30 mg/kg/day with rabbit [8] (setting [29]); 925 mg/kg/day in the series with mouse [9] (setting [30]). Further, the NEL with mouse [6] was less than 599 mg/kg/day; with dog [7] it was 60 mg/kg/day; with rabbit [8] (setting [28]) it was 10 mg/kg/day; with rabbit [8] (setting [29]), 10 mg/kg/day; in the series with mouse [9] (setting [31]), 15.1 mg/kg/day. Also, the no observed adverse effect level (NOAEL) was not below 1880 mg/kg/day with mouse [6]; 60 mg/kg/day in the series on dog [7]; 10 mg/kg/day in the series on rabbit [8] (setting [28]); 10 mg/kg/day in the series on rabbit [8] (setting [29]); 123 mg/kg/day in the series on mouse [9] (setting [31]).
As to `CCCCCCCCOC(C)=O` [Octyl acetate], the NEL in the series on rat [10] (systemic / in life observation / body weight / body weight + systemic / in life observation / food consumption / food consumption + systemic…) and with rat [11] (setting [33]) was 100 mg/kg/day in each case. Moreover, the LOAEL with rat [10] (setting [32]) and in the series on rat [11] (setting [33]) was more than 1000 mg/kg/day each time. Besides, the NOAEL in the series with rat [10] (setting [32]) and in the series with rat [11] (setting [33]) was not below 1000 mg/kg/day throughout. For the same compound, the LEL in the series on rat [10] (systemic / organ weight / liver / relative to body weight) and in the series with rat [11] (setting [30]) was 500 mg/kg/day throughout.
Consider `COc1ccc2c(c1)c(CC(=O)O)c(C)n2C(=O)c1ccc(Cl)cc1` [Indomethacin], for which, in the series on rat [12], the LEL came to 20 mg/kg/day, the LOAEL was more than 20 mg/kg/day, the NEL is less than 20 mg/kg/day and the no observed adverse effect level (NOAEL) was not below 20 mg/kg/day.
As to `O=C([O-])C(F)(F)C(F)(F)C(F)(F)C(F)(F)C(F)(F)C(F)(F)C(F)(F)F.[NH4+]` [PFOA, ammonium salt], the LEL with rat [13] was 15 mg/kg/day; in the series with rabbit [14] (setting [34]), 50 mg/kg/day; in the series on rabbit [14] (setting [26]), 50 mg/kg/day; with rat [15], 1.3 mg/kg/day; in the series on rat [16] (setting [35]) it was 30 mg/kg/day; in the series with rat [16] (setting [37]) it was 1 mg/kg/day. Moreover, the LEL in the series on rat [17] (systemic / organ weight / kidney / absolute) turned out to be 1.5 mg/kg/day. The lowest observed adverse effect level (LOAEL) is more than 15 mg/kg/day in the series with rat [13]; more than 50 mg/kg/day in the series with rabbit [14] (setting [34]); 50 mg/kg/day in the series with rabbit [14] (setting [26]); more than 14.2 mg/kg/day with rat [15]; more than 30 mg/kg/day in the series with rat [16] (setting [35]); more than 30 mg/kg/day with rat [16] (setting [36]). Also, in the series with rat [17] (setting [38]), the lowest-observed-adverse-effect level (LOAEL) was more than 50 mg/kg/day. For the same compound, the NEL in the series on rat [13] was less than 15 mg/kg/day; in the series with rabbit [14] (setting [34]) it was 5 mg/kg/day; in the series on rabbit [14] (setting [26]), 5 mg/kg/day; with rat [15], less than 1.3 mg/kg/day; in the series with rat [16] (setting [35]) it was 10 mg/kg/day; in the series with rat [16] (setting [37]), less than 1 mg/kg/day. The NEL in the series with rat [17] (systemic / clinical chemistry / alkaline phosphatase (alp/alk) / alkaline phosphatase (alp/alk) + systemic / clinical chemistry / urea …) came out at 0.5 mg/kg/day. Also, the NOAEL was not below 15 mg/kg/day with rat [13]; not below 50 mg/kg/day with rabbit [14] (setting [34]); 5 mg/kg/day with rabbit [14] (setting [26]); not below 14.2 mg/kg/day in the series with rat [15]; not below 30 mg/kg/day in the series with rat [16] (setting [35]); not below 30 mg/kg/day in the series on rat [16] (setting [36]). Besides, the NOAEL in the series with rat [17] (setting [38]) was not below 50 mg/kg/day.

These data come from EPA's ToxRefDB 2.
